Test results published in US8920832B2, “Composition for nucleic acid transfection” (Hokkaido System Science Co., Ltd., priority 2006, dated 2014).

Legend:
[1] = system: HeLa cells; test: Cytotoxicity score under microscope after DNA transfection, HeLa cells; assay type: cell-based
Method: (§3) HeLa cells were inoculated into a 96-well plate (7,500 cells/100 μL/well), followed by culturing for about 24 hours. DNA (pCMV-SPORT-βgal) was diluted with a DMEM medium, to thereby prepare a DNA-diluted solution having a DNA concentration of 8 μg/mL (for the case of 200 ng/well). […] The thus-obtained solution or Lipofectamine 2000 as a positive control (product of Invitrogen) was diluted with a DMEM medium so that the amount of the reconstituted liposome solution or Lipofectamine 2000 added to cells was “Amount of liposomes added (μL/well)” shown in Table 9 or 10. Immediately after dilution, the DNA-diluted solution (25 μL) was added to and mixed with the liposome-diluted solution (25 μL), and the mixture was allowed to stand still at room temperature for 30 minutes, to thereby form a DNA/liposome complex. The DNA/liposome complex (50 μL) was added to the inoculated HeLa cells (about 70 to about 90% confluent), to thereby initiate transfection. After culturing at 37° C. and 5% CO2 for one hour, a 10% FBS/DMEM medium (100 μL) was added to the culture liquid, followed by culturing at 37° C. and 5% CO2 for about 21 hours.
(§4) Each of the enhancers shown in Table 13 was diluted with a DMEM medium to different concentrations so that the amount of the enhancer finally added to cells was “Enhancer amount (μg/well)” shown in Table 13. […] The thus-diluted liposome solution was added to an equiamount of the above-diluted enhancer, followed by incubation at room temperature for 20 minutes. […] Subsequently, cytotoxicity was evaluated according to the aforementioned scores, and determination of β-gal activity, quantitative determination of protein, and viable cell counting were carried out.

[2] = system: HT1080 cells; test: Cytotoxicity score under microscope after DNA transfection, HT1080 cells; assay type: cell-based; parameters: scale not given here
Excerpt: (§1) The procedure of Test Example 5 was repeated, except that HeLa cells were replaced with HT1080 cells.
(§2) The procedure of Test Example 7 was repeated, except that HeLa cells were replaced with HT1080 cells.

[3] = system: HeLa cells; test: DNA (pCMV-SPORT-βgal) transfection into HeLa cells: β-gal activity; details: for β-gal activity: HeLa; for effect of enhancer on nucleic-acid-transfecting performance and cytotoxicity, in words: enhancer added to liposome solution of Formulation Example 4, summary of Tables 13 and 14 (HeLa and HT1080)
Method: as §3
The culture supernatant was removed, and the cells were washed with PBS(−). Thereafter, determination of β-galactosidase (hereinafter may be abbreviated as “β-gal”) activity, quantitative determination of protein, and viable cell counting were carried out as described below.
After complete removal of PBS through suction, a lysis buffer (30 μL) was added to the cells, and the mixture was stirred and then allowed to stand still at −80° C. for 30 minutes or longer for freezing. After rapid thawing in a water bath at 37° C., the mixture was again allowed to stand still at −80° C. for 30 minutes or longer for freezing, followed by rapid thawing in a water bath at 37° C. Thereafter, centrifugation was carried out (2,000 g×10 minutes), and the resultant supernatant (sample) (10 μL) was added to a 96-well microplate.
Determination of β-gal activity was carried out by means of a β-gal assay kit (product of Invitrogen). […] A 2-Me-containing cleavage buffer was added (50 μL/well) to the sample or each of the standard-diluted solutions (10 μL), and 4 mg/mL aqueous ONPG solution was added (17 μL/well), followed by incubation at 37° C. for 30 minutes. After completion of incubation, a stop buffer was added (120 μL/well) for termination of reaction, and absorbance was measured at 405 nm.
as §4

[4] = system: HT1080 cells; test: DNA (pCMV-SPORT-βgal) transfection into HT1080 cells: β-gal activity; assay type: cell-based
Excerpt: as §1, §2

[5] = Formulation Example 4 0.38 μL/well, enhancer 0.00625 μg/well
[6] = Formulation Example 4 0.38 μL/well, enhancer 0.0125 μg/well
[7] = Formulation Example 4 0.38 μL/well, enhancer 0.025 μg/well
[8] = Formulation Example 4 0.38 μL/well, enhancer 0.05 μg/well
[9] = Formulation Example 4 0.38 μL/well, enhancer 0.1 μg/well
[10] = Formulation Example 4 0.75 μL/well, enhancer 0.00625 μg/well
[11] = Formulation Example 4 0.75 μL/well, enhancer 0.0125 μg/well
[12] = Formulation Example 4 0.75 μL/well, enhancer 0.025 μg/well
[13] = Formulation Example 4 0.75 μL/well, enhancer 0.05 μg/well
[14] = Formulation Example 4 0.75 μL/well, enhancer 0.1 μg/well
[15] = Formulation Example 4 0.38 μL/well, enhancer 0.625 μg/well
[16] = Formulation Example 4 0.38 μL/well, enhancer 1.25 μg/well
[17] = Formulation Example 4 0.38 μL/well, enhancer 2.5 μg/well
[18] = Formulation Example 4 0.38 μL/well, enhancer 5 μg/well
[19] = Formulation Example 4 0.38 μL/well, enhancer 10 μg/well
[20] = Formulation Example 4 0.75 μL/well, enhancer 0.625 μg/well
[21] = Formulation Example 4 0.75 μL/well, enhancer 1.25 μg/well
[22] = Formulation Example 4 0.75 μL/well, enhancer 2.5 μg/well
[23] = Formulation Example 4 0.75 μL/well, enhancer 5 μg/well
[24] = Formulation Example 4 0.75 μL/well, enhancer 10 μg/well

**Q.** For pronectin, which Cytotoxicity score [1, 5] is on record?
**A.** 2.0

**Q.** And the Cytotoxicity score [1, 6]?
**A.** 2.0

**Q.** What about the Cytotoxicity score [1, 7] of the same substance?
**A.** 2.0

**Q.** And the Cytotoxicity score [1, 8]?
**A.** 1.5

**Q.** And the Cytotoxicity score [1, 9]?
**A.** 2.0

**Q.** What about the Cytotoxicity score [1, 10] of the same substance?
**A.** 4.0

**Q.** And the Cytotoxicity score [1, 11]?
**A.** 3.5

**Q.** What about the Cytotoxicity score [1, 12] of the same substance?
**A.** 3.5

**Q.** And the Cytotoxicity score [1, 13]?
**A.** 3.0

**Q.** And the Cytotoxicity score [1, 14]?
**A.** 3.0

**Q.** And the Cytotoxicity score [2, 5]?
**A.** 1.5

**Q.** And the Cytotoxicity score [2, 6]?
**A.** 1.0

**Q.** And the Cytotoxicity score [2, 7]?
**A.** 0.5

**Q.** What about the Cytotoxicity score [2, 8] of the same substance?
**A.** 1.0

**Q.** And the Cytotoxicity score [2, 9]?
**A.** 1.0

**Q.** And the Cytotoxicity score [2, 10]?
**A.** 3.0

**Q.** And the Cytotoxicity score [2, 11]?
**A.** 3.0

**Q.** And the Cytotoxicity score [2, 12]?
**A.** 2.5

**Q.** And the Cytotoxicity score [2, 13]?
**A.** 2.5

**Q.** And the Cytotoxicity score [2, 14]?
**A.** 2.0

**Q.** What about the β-gal activity [3, 5] of the same substance?
**A.** 23.3 mU/well

**Q.** What about the β-gal activity [3, 6] of the same substance?
**A.** 19.4 mU/well

**Q.** What about the β-gal activity [3, 7] of the same substance?
**A.** 15.5 mU/well

**Q.** What about the β-gal activity [3, 8] of the same substance?
**A.** 3.2 mU/well

**Q.** What about the β-gal activity [3, 9] of the same substance?
**A.** 0.8 mU/well

**Q.** And the β-gal activity [3, 10]?
**A.** 28.7 mU/well

**Q.** And the β-gal activity [3, 11]?
**A.** 25.1 mU/well

**Q.** And the β-gal activity [3, 12]?
**A.** 16.2 mU/well

**Q.** And the β-gal activity [3, 13]?
**A.** 6.2 mU/well

**Q.** And the β-gal activity [3, 14]?
**A.** 2.3 mU/well

**Q.** What about the “effect of enhancer on nucleic-acid-transfecting performance and cytotoxicity, in words” value [3] of the same substance?
**A.** excellent effects

**Q.** And the β-gal activity [4, 5]?
**A.** 87.2 mU/well

**Q.** And the β-gal activity [4, 6]?
**A.** 70.2 mU/well

**Q.** What about the β-gal activity [4, 7] of the same substance?
**A.** 52.0 mU/well

**Q.** What about the β-gal activity [4, 8] of the same substance?
**A.** 3.3 mU/well

**Q.** What about the β-gal activity [4, 9] of the same substance?
**A.** 0.3 mU/well

**Q.** What about the β-gal activity [4, 10] of the same substance?
**A.** 102.6 mU/well

**Q.** What about the β-gal activity [4, 11] of the same substance?
**A.** 107.3 mU/well

**Q.** What about the β-gal activity [4, 12] of the same substance?
**A.** 92.1 mU/well

**Q.** And the β-gal activity [4, 13]?
**A.** 16.0 mU/well

**Q.** And the β-gal activity [4, 14]?
**A.** 4.4 mU/well

**Q.** For protamine, which Cytotoxicity score [1, 15] is on record?
**A.** 1.5

**Q.** What about the Cytotoxicity score [1, 16] of the same substance?
**A.** 0.5

**Q.** And the Cytotoxicity score [1, 17]?
**A.** 0.5

**Q.** And the Cytotoxicity score [1, 18]?
**A.** 0.5

**Q.** And the Cytotoxicity score [1, 19]?
**A.** 0.5

**Q.** And the Cytotoxicity score [1, 20]?
**A.** 3.0

**Q.** What about the Cytotoxicity score [1, 21] of the same substance?
**A.** 1.0

**Q.** And the Cytotoxicity score [1, 22]?
**A.** 0.5

**Q.** What about the Cytotoxicity score [1, 23] of the same substance?
**A.** 0.5

**Q.** And the Cytotoxicity score [1, 24]?
**A.** 0.5

**Q.** And the Cytotoxicity score [2, 15]?
**A.** 1.5

**Q.** And the Cytotoxicity score [2, 16]?
**A.** 1.5

**Q.** What about the Cytotoxicity score [2, 17] of the same substance?
**A.** 1.0

**Q.** And the Cytotoxicity score [2, 18]?
**A.** 0.5

**Q.** And the Cytotoxicity score [2, 19]?
**A.** 0.5

**Q.** And the Cytotoxicity score [2, 20]?
**A.** 2.5

**Q.** What about the Cytotoxicity score [2, 21] of the same substance?
**A.** 2.0

**Q.** What about the Cytotoxicity score [2, 22] of the same substance?
**A.** 2.0

**Q.** What about the Cytotoxicity score [2, 23] of the same substance?
**A.** 2.0

**Q.** What about the Cytotoxicity score [2, 24] of the same substance?
**A.** 1.0

**Q.** And the β-gal activity [3, 15]?
**A.** 30.4 mU/well

**Q.** And the β-gal activity [3, 16]?
**A.** 9.8 mU/well

**Q.** And the β-gal activity [3, 17]?
**A.** 4.8 mU/well

**Q.** What about the β-gal activity [3, 18] of the same substance?
**A.** 0.9 mU/well

**Q.** And the β-gal activity [3, 19]?
**A.** 0.1 mU/well

**Q.** What about the β-gal activity [3, 20] of the same substance?
**A.** 46.2 mU/well

**Q.** What about the β-gal activity [3, 21] of the same substance?
**A.** 26.3 mU/well

**Q.** What about the β-gal activity [3, 22] of the same substance?
**A.** 10.1 mU/well

**Q.** And the β-gal activity [3, 23]?
**A.** 3.1 mU/well

**Q.** And the β-gal activity [3, 24]?
**A.** 0.5 mU/well

**Q.** What about the “effect of enhancer on nucleic-acid-transfecting performance and cytotoxicity, in words” value [3] of the same substance?
**A.** excellent effects

**Q.** What about the β-gal activity [4, 15] of the same substance?
**A.** 79.3 mU/well

**Q.** And the β-gal activity [4, 16]?
**A.** 61.5 mU/well

**Q.** What about the β-gal activity [4, 17] of the same substance?
**A.** 23.1 mU/well

**Q.** And the β-gal activity [4, 18]?
**A.** 4.1 mU/well

**Q.** And the β-gal activity [4, 19]?
**A.** 2.7 mU/well

**Q.** And the β-gal activity [4, 20]?
**A.** 103.9 mU/well

**Q.** What about the β-gal activity [4, 21] of the same substance?
**A.** 103.9 mU/well

**Q.** And the β-gal activity [4, 22]?
**A.** 49.8 mU/well

**Q.** And the β-gal activity [4, 23]?
**A.** 19.5 mU/well

**Q.** What about the β-gal activity [4, 24] of the same substance?
**A.** 15.1 mU/well
